# Source: ChEMBL document CHEMBL5046216, “Disrupting Tryptophan in the Central Hydrophobic Region Selectively Mitigates Immunomodulatory Activities of the Innate Defence Regulator Peptide IDR-1002” (J Med Chem, 2021)
# Active and inactive are the calls of the source. The calls are words filed in the database; no cut-off is given here.
# Legend:
# [1] = Retention time of the compound by HPLC analysis; type: physicochemical
# HBEC3-KT [2] = experiment: Cytotoxicity against human HBEC3-KT incubated for 24 hrs by LDH assay; type: functional
# Mus musculus [3] = experiment: Effect on MCP1 level in dust-mite-induced BALB/c mouse model of airway inflammation assessed as greater than 2 fold induction at 6 mg/kg, sc administered for 2 weeks and measured 24 hrs post-HDM challenge by MSD multiplex assay; type: functional, organism-based
# Mus musculus [4] = experiment: Effect on IL-25 level in dust-mite-induced BALB/c mouse model of airway inflammation assessed as greater than 2 fold induction at 6 mg/kg, sc administered for 2 weeks and measured 24 hrs post-HDM challenge by MSD multiplex assay; type: functional, organism-based
# Mus musculus [5] = experiment: Effect on IL-9 level in dust-mite-induced BALB/c mouse model of airway inflammation assessed as greater than 2 fold induction at 6 mg/kg, sc administered for 2 weeks and measured 24 hrs post-HDM challenge by MSD multiplex assay; type: functional, organism-based
# Mus musculus [6] = experiment: Antiinflammatory activity in house dust-mite-induced BALB/c mouse model of airway inflammation assessed as suppression of IL-33 abundance in lung tissue lysate at 6 mg/kg, sc administered for 2 weeks and measured 24 hrs post-HDM challenge by ELISA; type: functional
# Mus musculus [7] = experiment: Effect on IL-17A level in dust-mite-induced BALB/c mouse model of airway inflammation assessed as greater than 2 fold induction at 6 mg/kg, sc administered for 2 weeks and measured 24 hrs post-HDM challenge by MSD multiplex assay; type: functional, organism-based
# Mus musculus [8] = experiment: Effect on IL-17F level in dust-mite-induced BALB/c mouse model of airway inflammation assessed as greater than 2 fold induction at 6 mg/kg, sc administered for 2 weeks and measured 24 hrs post-HDM challenge by MSD multiplex assay; type: functional, organism-based
# Mus musculus [9] = experiment: Effect on IL-21 level in dust-mite-induced BALB/c mouse model of airway inflammation assessed as greater than 2 fold induction at 6 mg/kg, sc administered for 2 weeks and measured 24 hrs post-HDM challenge by MSD multiplex assay; type: functional, organism-based
# Mus musculus [10] = experiment: Effect on IL-31 level in dust-mite-induced BALB/c mouse model of airway inflammation assessed as greater than 2 fold induction at 6 mg/kg, sc administered for 2 weeks and measured 24 hrs post-HDM challenge by MSD multiplex assay; type: functional, organism-based
# Mus musculus [11] = experiment: Effect on IL-17C level in dust-mite-induced BALB/c mouse model of airway inflammation assessed as greater than 2 fold induction at 6 mg/kg, sc administered for 2 weeks and measured 24 hrs post-HDM challenge by MSD multiplex assay; type: functional, organism-based
# Mus musculus [12] = experiment: Effect on IL-23 level in dust-mite-induced BALB/c mouse model of airway inflammation assessed as greater than 2 fold induction at 6 mg/kg, sc administered for 2 weeks and measured 24 hrs post-HDM challenge by MSD multiplex assay; type: functional, organism-based
# Mus musculus [13] = experiment: Effect on IL-22 level in dust-mite-induced BALB/c mouse model of airway inflammation assessed as greater than 2 fold induction at 6 mg/kg, sc administered for 2 weeks and measured 24 hrs post-HDM challenge by MSD multiplex assay; type: functional, organism-based
# Mus musculus [14] = experiment: Effect on MIP3alpha level in dust-mite-induced BALB/c mouse model of airway inflammation assessed as greater than 2 fold induction at 6 mg/kg, sc administered for 2 weeks and measured 24 hrs post-HDM challenge by MSD multiplex assay; type: functional, organism-based
# Mus musculus [15] = experiment: Effect on TNF 1 level in dust-mite-induced BALB/c mouse model of airway inflammation assessed as greater than 2 fold induction at 6 mg/kg, sc administered for 2 weeks and measured 24 hrs post-HDM challenge by MSD multiplex assay; type: functional, organism-based
# Mus musculus [16] = experiment: Effect on IL-12p70 level in dust-mite-induced BALB/c mouse model of airway inflammation assessed as greater than 2 fold induction at 6 mg/kg, sc administered for 2 weeks and measured 24 hrs post-HDM challenge by MSD multiplex assay; type: functional, organism-based
# Mus musculus [17] = experiment: Effect on IL-10 level in dust-mite-induced BALB/c mouse model of airway inflammation assessed as greater than 2 fold induction at 6 mg/kg, sc administered for 2 weeks and measured 24 hrs post-HDM challenge by MSD multiplex assay; type: functional, organism-based
# Mus musculus [18] = experiment: Effect on KC 10 level in dust-mite-induced BALB/c mouse model of airway inflammation assessed as greater than 2 fold induction at 6 mg/kg, sc administered for 2 weeks and measured 24 hrs post-HDM challenge by MSD multiplex assay; type: functional, organism-based
# Mus musculus [19] = experiment: Effect on IL-6 level in dust-mite-induced BALB/c mouse model of airway inflammation assessed as greater than 2 fold induction at 6 mg/kg, sc administered for 2 weeks and measured 24 hrs post-HDM challenge by MSD multiplex assay; type: functional, organism-based
# Mus musculus [20] = experiment: Effect on IL-5 level in dust-mite-induced BALB/c mouse model of airway inflammation assessed as greater than 2 fold induction at 6 mg/kg, sc administered for 2 weeks and measured 24 hrs post-HDM challenge by MSD multiplex assay; type: functional, organism-based
# Mus musculus [21] = experiment: Effect on IL-4 level in dust-mite-induced BALB/c mouse model of airway inflammation assessed as greater than 2 fold induction at 6 mg/kg, sc administered for 2 weeks and measured 24 hrs post-HDM challenge by MSD multiplex assay; type: functional, organism-based
# Mus musculus [22] = experiment: Effect on IL-2 level in dust-mite-induced BALB/c mouse model of airway inflammation assessed as greater than 2 fold induction at 6 mg/kg, sc administered for 2 weeks and measured 24 hrs post-HDM challenge by MSD multiplex assay; type: functional, organism-based
# Mus musculus [23] = experiment: Effect on IL-1beta level in dust-mite-induced BALB/c mouse model of airway inflammation assessed as greater than 2 fold induction at 6 mg/kg, sc administered for 2 weeks and measured 24 hrs post-HDM challenge by MSD multiplex assay; type: functional, organism-based
# HBEC3-KT [24] = experiment: Antiinflammatory activity in human HBEC3-KT cells assessed as effect on MCP1 expression measured after 24 hrs by ELISA relative to control; type: functional, cell-based
# HBEC3-KT [25] = experiment: Immunomodulatory activity in human HBEC3-KT cells assessed as suppression of INFgamma-induced IL-33 at 10 uM preincubated for 30 mins followed by INFgamma stimulation and measured after 24 hrs by Western blot analysis; type: functional; conditions: 0.5 h
# HBEC3-KT [26] = experiment: Antiinflammatory activity in INFgamma-induced MCP1 expressed in human HBEC3-KT cells assessed as fold change measured after 24 hrs by ELISA relative to control; type: functional
# HBEC3-KT [27] = experiment: Antiinflammatory activity in human HBEC3-KT cells assessed as fold increase in STC1 expression at 10 uM measured after 24 hrs by ELISA relative to control; type: functional
# [28] = Stability of the compound in human HBEC3-KT cells assessed as compound degradation ay 10 uM measured after 16 hrs by FRET assay relative to control; type: functional
# Mus musculus [29] = experiment: Antiinflammatory activity in house dust-mite-induced BALB/c mouse model of airway inflammation assessed as suppression of total leukocyte count in BALF at 6 mg/kg, sc administered for 2 weeks and measured 24 hrs post-HDM challenge by Wright-Giemsa staining based microscopy; type: functional
# Mus musculus [30] = experiment: Antiinflammatory activity in house dust-mite-induced BALB/c mouse model of airway inflammation assessed as suppression of total eosinophil count in BALF at 6 mg/kg, sc administered for 2 weeks and measured 24 hrs post-HDM challenge by Wright-Giemsa staining based microscopy; type: functional
# Mus musculus [31] = experiment: Antiinflammatory activity in house dust-mite-induced BALB/c mouse model of airway inflammation assessed as suppression of total neutrophil count in BALF at 6 mg/kg, sc administered for 2 weeks and measured 24 hrs post-HDM challenge by Wright-Giemsa staining based microscopy; type: functional
# Mus musculus [32] = experiment: (§1) Antiinflammatory activity in house dust-mite-induced BALB/c mouse model of methacholine-induced airway hyperreactivity assessed as reduction in methacholine-induced newtonian resistance at 6 mg/kg , ip administered for 2 weeks after methacholine-stimulation at 50 mg/ml measured 24 hrs post-HDM challenge; type: functional
# Mus musculus [33] = experiment: Antiinflammatory activity in house dust-mite-induced BALB/c mouse model of methacholine-induced airway hyperreactivity assessed as reduction in methacholine-induced tissue damping at 6 mg/kg , ip administered for 2 weeks after methacholine-stimulation at 50 mg/ml measured 24 hrs post-HDM challenge; type: functional
# Mus musculus [34] = experiment: Antiinflammatory activity in house dust-mite-induced BALB/c mouse model of methacholine-induced airway hyperreactivity assessed as reduction in methacholine-induced tissue elastance at 6 mg/kg , ip administered for 2 weeks after methacholine-stimulation at 50 mg/ml measured 24 hrs post-HDM challenge; type: functional
# Mus musculus [35] = experiment: as §1, with “12” for “50”; type: functional, organism-based
# Mus musculus [36] = experiment: Antiinflammatory activity in house dust-mite-induced BALB/c mouse model of methacholine-induced airway hyperreactivity assessed as reduction in methacholine-induced tissue damping at 6 mg/kg , ip administered for 2 weeks after methacholine-stimulation at 12 mg/ml measured 24 hrs post-HDM challenge; type: functional, organism-based
# Mus musculus [37] = experiment: Antiinflammatory activity in house dust-mite-induced BALB/c mouse model of methacholine-induced airway hyperreactivity assessed as reduction in methacholine-induced tissue elastance at 6 mg/kg , ip administered for 2 weeks after methacholine-stimulation at 12 mg/ml measured 24 hrs post-HDM challenge; type: functional, organism-based
# HBEC3-KT [38] = experiment: Antiinflammatory activity in human HBEC3-KT cells assessed as fold increase in IL-1RA expression at 10 uM measured after 24 hrs by ELISA relative to control; type: functional
# Mus musculus [39] = experiment: Effect on IFNgamma level in dust-mite-induced BALB/c mouse model of airway inflammation assessed as greater than 2 fold induction at 6 mg/kg, sc administered for 2 weeks and measured 24 hrs post-HDM challenge by MSD multiplex assay; type: functional, organism-based
# Mus musculus [40] = experiment: Effect on IL-30 level in dust-mite-induced BALB/c mouse model of airway inflammation assessed as greater than 2 fold induction at 6 mg/kg, sc administered for 2 weeks and measured 24 hrs post-HDM challenge by MSD multiplex assay; type: functional, organism-based
# Mus musculus [41] = experiment: Effect on IL-15 level in dust-mite-induced BALB/c mouse model of airway inflammation assessed as greater than 2 fold induction at 6 mg/kg, sc administered for 2 weeks and measured 24 hrs post-HDM challenge by MSD multiplex assay; type: functional, organism-based
# Mus musculus [42] = experiment: Effect on IL-17AF level in dust-mite-induced BALB/c mouse model of airway inflammation assessed as greater than 2 fold induction at 6 mg/kg, sc administered for 2 weeks and measured 24 hrs post-HDM challenge by MSD multiplex assay; type: functional, organism-based
# Mus musculus [43] = experiment: Effect on MIP1alpha level in dust-mite-induced BALB/c mouse model of airway inflammation assessed as greater than 2 fold induction at 6 mg/kg, sc administered for 2 weeks and measured 24 hrs post-HDM challenge by MSD multiplex assay; type: functional, organism-based
# Mus musculus [44] = experiment: Effect on IP10 level in dust-mite-induced BALB/c mouse model of airway inflammation assessed as greater than 2 fold induction at 6 mg/kg, sc administered for 2 weeks and measured 24 hrs post-HDM challenge by MSD multiplex assay; type: functional, organism-based
# Mus musculus [45] = experiment: Effect on MIP2 level in dust-mite-induced BALB/c mouse model of airway inflammation assessed as greater than 2 fold induction at 6 mg/kg, sc administered for 2 weeks and measured 24 hrs post-HDM challenge by MSD multiplex assay; type: functional, organism-based
substance,measurement,setting,value
H-VQRWLIVWRIWK-OH,Retention_time,[1],18.47 min
same,Activity,HBEC3-KT [2],50%
H-VQRWLIVWRIRK-OH,Activity,Mus musculus [3],inactive
same,Activity,Mus musculus [4],inactive
same,Activity,Mus musculus [5],inactive
same,Activity,Mus musculus [6],>40%
same,Activity,Mus musculus [7],inactive
same,Activity,Mus musculus [8],inactive
same,Activity,Mus musculus [9],inactive
same,Activity,Mus musculus [10],inactive
same,Activity,Mus musculus [11],inactive
same,Activity,Mus musculus [12],inactive
same,Activity,Mus musculus [13],inactive
same,Activity,Mus musculus [14],inactive
same,Activity,Mus musculus [15],inactive
same,Activity,Mus musculus [16],inactive
same,Activity,Mus musculus [17],inactive
same,Activity,Mus musculus [18],inactive
same,Activity,Mus musculus [19],inactive
same,Activity,Mus musculus [20],inactive
same,Activity,Mus musculus [21],inactive
same,Activity,Mus musculus [22],inactive
same,Activity,Mus musculus [23],inactive
same,Activity,HBEC3-KT [24],inactive
same,Retention_time,[1],16.16 min
same,Activity,HBEC3-KT [2],<=15%
same,Activity,HBEC3-KT [25],85%
same,fold change (FC),HBEC3-KT [26],3.8
same,fold change (FC),HBEC3-KT [27],4
same,Activity,[28],<5%
same,Activity,Mus musculus [29],66%
same,Activity,Mus musculus [30],63%
same,Activity,Mus musculus [31],60%
same,Activity,Mus musculus [32],Active
same,Activity,Mus musculus [33],Active
same,Activity,Mus musculus [34],Active
same,Activity,Mus musculus [35],Active
same,Activity,Mus musculus [36],Active
same,Activity,Mus musculus [37],Active
same,fold change (FC),HBEC3-KT [38],2.6
same,Activity,Mus musculus [39],inactive
same,Activity,Mus musculus [40],inactive
same,Activity,Mus musculus [41],inactive
same,Activity,Mus musculus [42],inactive
same,Activity,Mus musculus [43],inactive
same,Activity,Mus musculus [44],inactive
same,Activity,Mus musculus [45],inactive
